Source: patent publication US9751885B2, “Cyclopropanamine compound and use thereof” (Takeda Pharmaceutical Company Limited, priority 2012, dated 2017)
Where a name gives a salt, the structure may show the parent alone.

Key:
MAO-B enzyme = MAO-B enzyme (Homo sapiens (Human), UniProt P27338); assay: Measurement of MAO-B inhibitory activity (MAO-Glo Assay); conditions: read-out: MAO-B IC50 value;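 also: luminescence read-out, compound preincubated 10 min with enzyme then reacted 60 min at room temperature, inhibition relative to enzyme reaction without compound, blank lacking enzyme and compound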
human LSD1(172-833) = human LSD1(172-833) (Homo sapiens (Human), UniProt O60341); assay: Measurement of LSD1 inhibitory activity (time-resolved fluorescence, biotin-histone H3 mono methylated K4 peptide); format: biochemical
Procedure: When the turbidity reached 500 Klett units, the culture temperature was changed to 16° C., IPTG (Isopropyl β-D-1-thiogalactopyranoside) having a final concentration of 0.5 mM was added to induce expression, and the cells were cultured further for 14 hr. The culture medium was centrifuged at 6,000 g for 15 min, and Escherichia coil pellets were recovered.
Using Branson ultrasonic disintegrator, the suspension was disrupted by ultrasonication for 3 min, and centrifuged at 33,000 g for 60 min, and the supernatant was recovered. […] It was concentrated to 10 mL with AmiconUltra (NWCO 30K) (Millipore Japan), and purified with HiLoad 26/60 Superdex 200 pg column (GE Healthcare) equilibrated with Buffer A to give hLSD1 purified product (8.4 mg). The protein concentration of hLSD1 was measured by BCA Protein Assay Kit (Thermo Fisher Scientific K.K.) using bovine serum albumin as the standard.
(5) Measurement of LSD1 Inhibitory Activity
After reaction at room temperature for 5 min, 1 mM 2-PCPA solution was added 5 μL to terminate the reaction. A detection solution ([…] potassium fluoride, 0.1% BSA) containing europium-labeled anti-histone H3 antibody (Wako Pure Chemical Industries, Ltd.) and Streptavidin-XL665 (Cisbio) was further added by 5 μL, and the mixture was left standing for 60 min.

MAO-A enzyme = MAO-A enzyme (Homo sapiens (Human), UniProt P21397); assay: Measurement of MAO-A inhibitory activity (MAO-Glo Assay); format: biochemical
Chain of MAO-A enzyme (P21397 whole entry): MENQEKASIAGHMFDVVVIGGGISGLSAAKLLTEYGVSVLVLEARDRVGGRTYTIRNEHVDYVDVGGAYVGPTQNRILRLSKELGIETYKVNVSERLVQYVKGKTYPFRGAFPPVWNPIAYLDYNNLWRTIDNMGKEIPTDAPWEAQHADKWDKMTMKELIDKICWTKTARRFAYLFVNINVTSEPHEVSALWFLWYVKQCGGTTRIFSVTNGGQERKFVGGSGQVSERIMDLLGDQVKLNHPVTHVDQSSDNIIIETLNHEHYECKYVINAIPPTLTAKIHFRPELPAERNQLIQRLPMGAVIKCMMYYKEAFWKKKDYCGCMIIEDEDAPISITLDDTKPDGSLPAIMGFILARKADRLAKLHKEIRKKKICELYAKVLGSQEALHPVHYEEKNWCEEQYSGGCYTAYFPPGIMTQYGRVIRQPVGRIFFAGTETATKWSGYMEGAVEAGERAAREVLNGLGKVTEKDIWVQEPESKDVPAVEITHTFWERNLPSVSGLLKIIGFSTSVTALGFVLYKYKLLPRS

Chain of MAO-B enzyme (P27338 whole entry): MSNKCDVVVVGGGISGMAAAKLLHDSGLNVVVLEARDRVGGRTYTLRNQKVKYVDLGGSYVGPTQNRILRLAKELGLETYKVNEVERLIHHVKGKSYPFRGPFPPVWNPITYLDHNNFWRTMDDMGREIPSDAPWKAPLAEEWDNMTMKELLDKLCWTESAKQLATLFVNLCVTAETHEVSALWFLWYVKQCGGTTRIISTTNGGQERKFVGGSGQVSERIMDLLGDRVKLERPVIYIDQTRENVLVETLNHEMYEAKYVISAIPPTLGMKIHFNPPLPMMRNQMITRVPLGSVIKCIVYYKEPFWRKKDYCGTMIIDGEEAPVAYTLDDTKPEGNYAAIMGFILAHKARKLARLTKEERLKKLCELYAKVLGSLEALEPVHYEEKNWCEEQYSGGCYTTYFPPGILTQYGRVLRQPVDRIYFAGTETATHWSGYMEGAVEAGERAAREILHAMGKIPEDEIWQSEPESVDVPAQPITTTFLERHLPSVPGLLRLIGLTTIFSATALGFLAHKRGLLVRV

| SMILES | IC50 (MAO-B enzyme) [µM] | IC50 (human LSD1(172-833)) [µM] | IC50 (MAO-A enzyme) [µM] |
| --- | --- | --- | --- |
| O=C(NCc1ccccc1)c1ccc([C@@H]2C[C@H]2NCc2ccccc2F)cc1 (relative stereo) [Example 39, N-benzyl-4-(trans-2-((2-fluorobenzyl)amino)cyclopropyl)benzamide trifluoroacetate] | > 10 | < 0.1 | 6.6 |
| Cc1ncc(NC(=O)c2cccc([C@@H]3C[C@H]3NC3CCC3)c2)s1 (relative stereo) [Example 210, 3-(trans-2-(cyclobutylamino)cyclopropyl)-N-(2-methyl-1,3-thiazol-5-yl)benzamide dihydrochloride] | > 10 | < 0.1 | > 10 |
| O=C(Nc1cnn(CC(F)(F)F)c1)c1cccc([C@@H]2C[C@H]2NCC2CC2)c1 (relative stereo) [Example 151, 3-(trans-2-((cyclopropylmethyl)amino)cyclopropyl)-N-(1-(2,2,2-trifluoroethyl)-1H-pyrazol-4-yl)benzamide hydrochloride] | > 10 | < 0.1 | > 10 |
| O=C(Nc1ccc(OC(F)(F)F)cc1)c1cccc([C@@H]2C[C@H]2NCC2CC2)c1 (relative stereo) [Example 123, 3-(trans-2-((cyclopropylmethyl)amino)cyclopropyl)-N-(4-(trifluoromethoxy)phenyl)benzamide trifluoroacetate] | > 10 | < 0.1 | > 10 |
| O=C(NCc1cccc(Oc2cnccn2)c1)c1ccc([C@@H]2C[C@H]2NCC2CC2)cc1 (relative stereo) [Example 29, 4-(trans-2-((cyclopropylmethyl)amino)cyclopropyl)-N-(3-(pyrazin-2-yloxy)benzyl)benzamide bis(trifluoroacetate)] | > 10 | < 0.1 | 7.3 |
| CN1CCC(N[C@@H]2C[C@H]2c2cccc(C(=O)Nc3cnn(CC4CC4)c3)c2)CC1 (relative stereo) [Example 202, N-(1-(cyclopropylmethyl)-1H-pyrazol-4-yl)-3-(trans-2-((1-methylpiperidin-4-yl)amino)cyclopropyl)benzamide trihydrochloride] | > 10 | < 0.1 | > 10 |
| N[C@@H]1C[C@H]1c1ccc(C(=O)Nc2ccccc2)cc1 (relative stereo) [Example 1, 4-(trans-2-aminocyclopropyl)-N-phenylbenzamide hydrochloride] | 3.2 | < 0.1 | 0.1 |
| N[C@@H]1C[C@H]1c1ccc(C(=O)NCc2ccccc2)cc1 (relative stereo) [Example 2, 4-(trans-2-aminocyclopropyl)-N-benzylbenzamide hydrochloride] | > 10 | < 0.1 | 0.1 |
| O=C(NCCc1ccccc1)c1cccc([C@@H]2C[C@H]2NCC2CC2)c1 (relative stereo) [Example 120, 3-(trans-2-((cyclopropylmethyl)amino)cyclopropyl)-N-(2-phenylethyl) benzamide trifluoroacetate] | > 10 | < 0.1 | 9.6 |
| O=C(NC1CCC(F)(F)CC1)c1cccc([C@@H]2C[C@H]2NC2CCN(C3CC3)CC2)c1 (relative stereo) [Example 208, 3-(trans-2-((1-cyclopropylpiperidin-4-yl)amino)cyclopropyl)-N-(4,4-difluorocyclohexyl)benzamide dihydrochloride] | > 10 | < 0.1 | > 10 |
| O=C(Nc1ccc2[nH]c(=O)sc2c1)c1cccc([C@@H]2C[C@H]2NCC2CC2)c1 (relative stereo) [Example 147, 3-(trans-2-((cyclopropylmethyl)amino)cyclopropyl)-N-(2-oxo-2,3-dihydro-1,3-benzothiazol-6-yl)benzamide trifluoroacetate] | > 10 | < 0.1 | > 10 |
| COc1cc(Cl)ccc1CN[C@@H]1C[C@H]1c1ccc(C(=O)NCc2ccccc2)cc1 (relative stereo) [Example 41, N-benzyl-4-(trans-2-((4-chloro-2-methoxybenzyl)amino)cyclopropyl)benzamide trifluoroacetate] | > 10 | < 0.1 | 6.6 |
| O=C(Nc1ccc(-c2cn3c(n2)SCC3)cc1)c1cccc([C@@H]2C[C@H]2NCC2CC2)c1 (relative stereo) [Example 127, 3-(trans-2-((cyclopropylmethyl)amino)cyclopropyl)-N-(4-(2,3-dihydroimidazo[2,1-b][1,3]thiazol-6-yl)phenyl)benzamide bis(trifluoroacetate)] | > 10 | < 0.1 | > 10 |
| O=C(NC1CCCC1)c1cccc([C@@H]2C[C@H]2NCC2CCOCC2)c1 (relative stereo) [Example 83, N-cyclopentyl-3-(trans-2-((tetrahydro-2H-pyran-4-ylmethyl)amino)cyclopropyl)benzamide hydrochloride] | > 10 | < 0.1 | > 10 |
| N[C@@H]1C[C@H]1c1ccc(C(=O)NC2CCCCC2)cc1 (relative stereo) [Example 6, 4-(trans-2-aminocyclopropyl)-N-cyclohexylbenzamide hydrochloride] | 4.2 | < 0.1 | 0.32 |
| O=C(Nc1ccc2[nH]ncc2c1)c1cccc([C@@H]2C[C@H]2NCC2CC2)c1 (relative stereo) [Example 146, 3-(trans-2-((cyclopropylmethyl)amino)cyclopropyl)-N-(1H-indazol-5-yl)benzamide trifluoroacetate] | > 10 | < 0.1 | > 10 |
| COc1ccc(F)c(CN[C@@H]2C[C@H]2c2ccc(C(=O)NCc3ccccc3)cc2)c1 (relative stereo) [Example 40, N-benzyl-4-(trans-2-((2-fluoro-5-methoxybenzyl)amino)cyclopropyl)benzamide trifluoroacetate] | > 10 | < 0.1 | > 10 |
| CN(Cc1ccccc1)C(=O)c1ccc([C@@H]2C[C@H]2N)cc1 (relative stereo) [Example 9, 4-(trans-2-aminocyclopropyl)-N-benzyl-N-methylbenzamide hydrochloride] | > 10 | < 0.1 | 0.12 |
| O=C(NCc1cccc(Oc2ccccc2)c1)c1ccc([C@@H]2C[C@H]2NCC2CC2)cc1 (relative stereo) [Example 21, 4-(trans-2-((cyclopropylmethyl)amino)cyclopropyl)-N-(3-phenoxybenzyl)benzamide trifluoroacetate] | > 10 | < 0.1 | 1.8 |
| CN(Cc1ccccc1)C(=O)c1ccc([C@@H]2C[C@H]2NCC2CC2)cc1 (relative stereo) [Example 10, N-benzyl-4-(trans-2-((cyclopropylmethyl)amino)cyclopropyl)-N-methylbenzamide hydrochloride] | > 10 | < 0.1 | 7 |
| O=C(Nc1ccc(-c2ncccn2)cc1)c1ccc([C@@H]2C[C@H]2NCC2CC2)cc1 (relative stereo) [Example 52, 4-(trans-2-((cyclopropylmethyl)amino)cyclopropyl)-N-(4-(pyrimidin-2-yl)phenyl)benzamide dihydrochloride] | > 10 | < 0.1 | > 10 |
| O=C(Nc1cccc(F)c1)c1cccc([C@@H]2C[C@H]2NCC2CC2)c1 (relative stereo) [Example 122, 3-(trans-2-((cyclopropylmethyl)amino)cyclopropyl)-N-(3-fluorophenyl) benzamide trifluoroacetate] | > 10 | < 0.1 | > 10 |
| O=C(Nc1cnn(CC2CC2)c1)c1cccc([C@@H]2C[C@H]2NC2CCC(F)(F)CC2)c1 (relative stereo) [Example 204, N-(1-(cyclopropylmethyl)-1H-pyrazol-4-yl)-3-(trans-2-((4,4-difluorocyclohexyl)amino)cyclopropyl)benzamide dihydrochloride] | > 10 | < 0.1 | > 10 |
| Cc1cc(C)nc(Sc2cccc(NC(=O)c3cccc([C@@H]4C[C@H]4NCC4CC4)c3)c2)n1 (relative stereo) [Example 132, 3-(trans-2-((cyclopropylmethyl)amino)cyclopropyl)-N-(3-((4,6-dimethylpyrimidin-2-yl)sulfanyl)phenyl)benzamide trifluoroacetate] | > 10 | < 0.1 | > 10 |
| O=C(NCc1ccccn1)c1ccc([C@@H]2C[C@H]2NCC2CC2)cc1 (relative stereo) [Example 16, 4-(trans-2-((cyclopropylmethyl)amino)cyclopropyl)-N-(pyridin-2-ylmethyl)benzamide bis(trifluoroacetate)] | > 10 | < 0.1 | > 10 |
| COc1ccccc1CN[C@@H]1C[C@H]1c1ccc(C(=O)NCc2ccccc2)cc1 (relative stereo) [Example 32, N-benzyl-4-(trans-2-((2-methoxybenzyl)amino)cyclopropyl)benzamide trifluoroacetate] | > 10 | < 0.1 | > 10 |
